Patent US9422293B2 (priority 2006, dated 2016)
Where a name gives a salt, the structure may show the parent alone.

Target: rat TRPV1 (Rattus norvegicus (Rat), UniProt O35433)
Conditions: read-out: Rat IC50
Protocol: Biological Testing: Functional Assay: Block of Capsaicin-Induced Ca^2+ Influx A. Human Assay
Cells were passaged frequently, every 3-5 days, to avoid overgrowth, depletion of essential medium components, or acidic medium exposure. Cells were passaged using a brief wash in 0.05% trypsin with 1 mM EDTA, followed by dissociation in divalent-free phosphate-buffered saline (Hyclone #SH30028.02). […] The assay buffer was composed of 130 mM NaCl, 2 mM KCl, 2 mM MgCl2, 10 mM HEPES, 5 mM glucose, and either 2 mM or 20 μM CaCl2. On the day of the experiment, the culture medium was replaced with 2 mM calcium assay buffer using an automated plate washer (ELx405; Biotek, VT). […] After loading the cells, the dye solution was replaced with 50 μL/well of 20 μM calcium assay buffer using the ELx405 plate washer. Test compounds (50 μL/well) were added to the plate and incubated for 30 min. […] The IC50 values were determined. […] The contents of the wells were mixed 3 times (40 μL mix volume) immediately after the additions were made. Concentration dependence of block was determined by exposing each well of cells in duplicate rows of a 96 well plate to a serial dilution of test compound. The concentration series usually started at 10 μM with a three-fold serial decrement in concentration. The magnitude of the capsaicin response was determined by measuring the change in fluo3 fluorescence before and 100 seconds after the addition of the agonist. Data were analyzed using a non-linear regression program (Origin; OriginLab, MA). IC50 values shown are the average (mean) of the results obtained.
The assay was performed as described above, using HEK293 cells transfected with rat TRPV1 (rTRPV1/HEK293). […] IC50 values shown are the average (mean) of the results obtained.

Sequence of rat TRPV1 (O35433 whole entry): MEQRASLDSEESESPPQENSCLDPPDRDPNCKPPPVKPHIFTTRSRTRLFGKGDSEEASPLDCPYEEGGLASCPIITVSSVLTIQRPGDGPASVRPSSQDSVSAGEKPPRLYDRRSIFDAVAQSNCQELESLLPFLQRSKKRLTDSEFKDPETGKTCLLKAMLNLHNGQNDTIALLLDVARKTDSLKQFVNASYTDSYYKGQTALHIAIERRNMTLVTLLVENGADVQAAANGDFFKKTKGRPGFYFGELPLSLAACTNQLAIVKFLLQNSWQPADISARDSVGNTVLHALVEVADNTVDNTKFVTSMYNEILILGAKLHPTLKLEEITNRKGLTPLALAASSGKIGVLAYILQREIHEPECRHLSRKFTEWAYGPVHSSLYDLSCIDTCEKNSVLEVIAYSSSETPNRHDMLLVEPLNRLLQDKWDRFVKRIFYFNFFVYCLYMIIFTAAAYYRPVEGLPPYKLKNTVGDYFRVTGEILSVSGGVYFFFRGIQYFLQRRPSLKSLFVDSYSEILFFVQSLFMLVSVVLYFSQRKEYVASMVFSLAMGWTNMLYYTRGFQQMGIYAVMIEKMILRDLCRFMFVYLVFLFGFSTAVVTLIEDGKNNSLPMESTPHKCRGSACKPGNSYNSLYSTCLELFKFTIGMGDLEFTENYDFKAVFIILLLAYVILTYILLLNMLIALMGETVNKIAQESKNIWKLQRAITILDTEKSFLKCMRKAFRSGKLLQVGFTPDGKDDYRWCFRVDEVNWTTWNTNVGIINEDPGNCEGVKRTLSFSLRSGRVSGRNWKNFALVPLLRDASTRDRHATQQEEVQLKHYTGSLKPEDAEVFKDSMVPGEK

| Compound | IC50 |
| --- | --- |
| CN1CCN(c2nc3c(c(Nc4ccc(C(F)(F)F)c(Cl)c4)n2)CCN(c2ncccc2C(F)(F)F)CC3)CC1 [Example 221, N-[3-Chloro-4-(trifluoromethyl)phenyl]-2-(4-methylpiperazin-1-yl)-7-[3-(trifluoromethyl)pyridin-2-yl]-6,7,8,9-tetrahydro-5H-pyrimido[4,5-d]azepin-4-amine] | 720 nM |
| FC(F)(F)c1ccc(Nc2nc(N3CCCCCC3)nc3c2CCN(c2ncccc2C(F)(F)F)CC3)cc1 [Example 222, 2-Azepan-1-yl-N-[4-(trifluoromethyl)phenyl]-7-[3-(trifluoromethyl)pyridin-2-yl]-6,7,8,9-tetrahydro-5H-pyrimido[4,5-d]azepin-4-amine] | 20 nM |
| FC(F)(F)c1ccc(Nc2nc(N3CCCCCC3)nc3c2CCN(c2ncccc2C(F)(F)F)CC3)cn1 [Example 223, 2-Azepan-1-yl-7-[3-(trifluoromethyl)pyridin-2-yl]-N-[6-(trifluoromethyl)pyridin-3-yl]-6,7,8,9-tetrahydro-5H-pyrimido[4,5-d]azepin-4-amine] | 30 nM |
| FC(F)(F)c1ccc(Nc2nc(N3CCCCCC3)nc3c2CCN(c2ncccc2C(F)(F)F)CC3)cc1Cl [Example 224, 2-Azepan-1-yl-N-[3-chloro-4-(trifluoromethyl)phenyl]-7-[3-(trifluoromethyl)pyridin-2-yl]-6,7,8,9-tetrahydro-5H-pyrimido[4,5-d]azepin-4-amine] | 20 nM |
| COCCN(C)c1nc2c(c(Nc3ccc(C(F)(F)F)nc3)n1)CCN(c1ncccc1C(F)(F)F)CC2 [Example 228, N^2-Methyl-N^2-[2-(methyloxy)ethyl]-7-[3-(trifluoromethyl)pyridin-2-yl]-N^4-[6-(trifluoromethyl)pyridin-3-yl]-6,7,8,9-tetrahydro-5H-pyrimido[4,5-d]azepine-2,4-diamine trifluoroacetic acid salt] | 40 nM |
| COCCN(C)c1nc2c(c(Nc3ccc(C(F)(F)F)c(Cl)c3)n1)CCN(c1ncccc1C(F)(F)F)CC2 [Example 229, N^4-[3-Chloro-4-(trifluoromethyl)phenyl]-N^2-methyl-N^2-[2-(methyloxy)ethyl]-7-[3-(trifluoromethyl)pyridin-2-yl]-6,7,8,9-tetrahydro-5H-pyrimido[4,5-d]azepine-2,4-diamine trifluoroacetic acid salt] | 60 nM |
| FC(F)(F)c1ccc(Nc2nc(N3CCC3)nc3c2CCN(c2ncccc2C(F)(F)F)CC3)cc1Cl [Example 231, 2-Azetidin-1-yl-N-[3-chloro-4-(trifluoromethyl)phenyl]-7-[3-(trifluoromethyl)pyridin-2-yl]-6,7,8,9-tetrahydro-5H-pyrimido[4,5-d]azepin-4-amine trifluoroacetic acid salt] | 100 nM |
| FC(F)(F)c1ccc(Nc2nc(N3CCCCC3)nc3c2CCN(c2ncccc2C(F)(F)F)CC3)cc1Cl [Example 233, N-[3-Chloro-4-(trifluoromethyl)phenyl]-2-piperidin-1-yl-7-[3-(trifluoromethyl)pyridin-2-yl]-6,7,8,9-tetrahydro-5H-pyrimido[4,5-d]azepin-4-amine trifluoroacetic acid salt] | 170 nM |
| FC(F)(F)c1ccc(Nc2nc(N3CCCCC3)nc3c2CCN(c2ncccc2C(F)(F)F)CC3)cn1 [Example 234, 2-Piperidin-1-yl-7-[3-(trifluoromethyl)pyridin-2-yl]-N-[6-(trifluoromethyl)pyridin-3-yl]-6,7,8,9-tetrahydro-5H-pyrimido[4,5-d]azepin-4-amine trifluoroacetic acid salt] | 80 nM |
| FC1(F)CCCN(c2nc3c(c(Nc4ccc(C(F)(F)F)cc4)n2)CCN(c2ncccc2C(F)(F)F)CC3)C1 [Example 238, 2-(3,3-Difluoropiperidin-1-yl)-N-[4-(trifluoromethyl)phenyl]-7-[3-(trifluoromethyl)pyridin-2-yl]-6,7,8,9-tetrahydro-5H-pyrimido[4,5-d]azepin-4-amine trifluoroacetic acid salt] | 40 nM |
| CC1CCCN(c2nc3c(c(Nc4ccc(C(F)(F)F)cc4)n2)CCN(c2ncccc2C(F)(F)F)CC3)C1 (stereo not shown) [Example 240, 2-(3-Methylpiperidin-1-yl)-N-[4-(trifluoromethyl)phenyl]-7-[3-(trifluoromethyl)pyridin-2-yl]-6,7,8,9-tetrahydro-5H-pyrimido[4,5-d]azepin-4-amine trifluoroacetic acid salt] | 20 nM |
| FC1(F)CN(c2nc3c(c(Nc4ccc(C(F)(F)F)cc4)n2)CCN(c2ncccc2C(F)(F)F)CC3)C1 [Example 241, 2-(3,3-Difluoroazetidin-1-yl)-N-[4-(trifluoromethyl)phenyl]-7-[3-(trifluoromethyl)pyridin-2-yl]-6,7,8,9-tetrahydro-5H-pyrimido[4,5-d]azepin-4-amine] | 170 nM |
| FC1(F)CCN(c2nc3c(c(Nc4ccc(C(F)(F)F)cc4)n2)CCN(c2ncccc2C(F)(F)F)CC3)CC1 [Example 242, 2-(4,4-Difluoropiperidin-1-yl)-N-[4-(trifluoromethyl)phenyl]-7-[3-(trifluoromethyl)pyridin-2-yl]-6,7,8,9-tetrahydro-5H-pyrimido[4,5-d]azepin-4-amine] | 90 nM |
| FC1(F)CCN(c2nc3c(c(Nc4ccc(C(F)(F)F)cc4)n2)CCN(c2ncccc2C(F)(F)F)CC3)C1 [Example 243, 2-(3,3-Difluoropyrrolidin-1-yl)-N-[4-(trifluoromethyl)phenyl]-7-[3-(trifluoromethyl)pyridin-2-yl]-6,7,8,9-tetrahydro-5H-pyrimido[4,5-d]azepin-4-amine trifluoroacetic acid salt] | 450 nM |
| FC(F)(F)c1ccc(Nc2nc(N3CCCOCC3)nc3c2CCN(c2ncccc2C(F)(F)F)CC3)cc1Cl [Example 245, N-[3-Chloro-4-(trifluoromethyl)phenyl]-2-(1,4-oxazepan-4-yl)-7-[3-(trifluoromethyl)pyridin-2-yl]-6,7,8,9-tetrahydro-5H-pyrimido[4,5-d]azepin-4-amine trifluoroacetic acid salt] | 20 nM |
| CC(C)(C)c1ccc(Nc2nc(N3CCCC3)nc3c2CCN(c2ncccc2C(F)(F)F)CC3)cc1 [Example 248, N-[4-(1,1-Dimethylethyl)phenyl]-2-pyrrolidin-1-yl-7-[3-(trifluoromethyl)pyridin-2-yl]-6,7,8,9-tetrahydro-5H-pyrimido[4,5-d]azepin-4-amine] | 530 nM |
| CC(C)(C)c1ccc(Nc2nc(N3CCC3)nc3c2CCN(c2ncccc2C(F)(F)F)CC3)cc1 [Example 249, 2-Azetidin-1-yl-N-[4-(1,1-dimethylethyl)phenyl]-7-[3-(trifluoromethyl)pyridin-2-yl]-6,7,8,9-tetrahydro-5H-pyrimido[4,5-d]azepin-4-amine] | 830 nM |
| FC(F)(F)c1ccc(Nc2nc(N3CCCCC3)nc3c2CCN(c2ncccc2C(F)(F)F)CC3)nc1 [Example 250, 2-Piperidin-1-yl-7-[3-(trifluoromethyl)pyridin-2-yl]-N-[5-(trifluoromethyl)pyridin-2-yl]-6,7,8,9-tetrahydro-5H-pyrimido[4,5-d]azepin-4-amine] | 90 nM |
| FC(F)(F)c1cccnc1N1CCc2nc(N3CCCCC3)nc(NCc3ccc(Cl)c(Cl)c3)c2CC1 [Example 251, N-[(3,4-Dichlorophenyl)methyl]-2-piperidin-1-yl-7-[3-(trifluoromethyl)pyridin-2-yl]-6,7,8,9-tetrahydro-5H-pyrimido[4,5-d]azepin-4-amine] | 1980 nM |
